# Data published in PMC11990924, “Inhibition of Tyrosinase and Melanogenesis by Carboxylic Acids: Mechanistic Insights and Safety Evaluation” (Molecules, 2025).
# Experiments:
# B16-F10 cells = assay: Proteomic analysis of B16-F10 cells (DIA mass spectrometry); type: cell-based, mouse; settings: 6 mM vs control; Table S4
# Description: B16-F10 cells were treated with various concentrations of carboxylic acids following the same culture protocol used for melanin inhibition assays. After treatment, the cells were collected and submitted to Shanghai Zhongke Xinming Biotechnology Co., Ltd. (Shanghai, China) for proteomics analysis. The collected cells were lysed with an appropriate volume of SDT lysis buffer (4% SDS, 100 mM Tris-HCl, pH 7.6) to extract proteins. DTT was added to reduce disulfide bonds, followed by incubation at room temperature for 1 h. Subsequently, iodoacetamide was added, and the mixture was reacted in the dark at room temperature for 30 min. The proteins were then digested with trypsin overnight. The resulting peptide fragments were desalted using a C18 cartridge. After freeze-drying, the peptides were resuspended in 40 μL of 0.1% formic acid solution, and the peptide concentration was determined by measuring the absorbance at 280 nm. An appropriate amount of internal reference for targeted proteomics (iRT) standard peptides was added to each sample for data-independent acquisition (DIA) mass spectrometry analysis. Chromatographic separation was performed using a nanoflow Evosep One system. The separated samples were analyzed by DIA mass spectrometry using a timsTOF Pro mass spectrometer (Bruker Daltonics, Bremen, Germany). Detection was conducted in positive-ion mode, with MS and MS/MS scanning ranges set from 100 to 1700 m/z. MS2 data acquisition was performed in DIA mode, with four TIMS scan windows, each accumulating for 100 ms. In PASEF mode, the collision energy varied linearly with ion mobility (1/K0), ranging from 20 to 59 eV for ions with 1/K0 values between 0.85 and 1.30 Vs/cm^2. The DIA data were processed using Spectronaut 19 software with the following parameter settings: retention time prediction type set to dynamic iRT, interference correction on MS2 level enabled, cross-run normalization enabled, maximum missed cleavage sites set to 2, fixed modification set to Carbamidomethyl (C), and variable modifications set to Oxidation (M) and Acetyl (Protein N-term). All results were filtered with a Q-value cutoff of 0.01, corresponding to a false discovery rate (FDR) of less than 1%. The target protein set was annotated using Blast2GO (version BLASTP 2.8.0+). The process included four steps: sequence alignment (Blast), GO mapping, GO annotation, and additional annotation augmentation using InterProScan. Using the KOBAS 3.0 software, KEGG pathway annotation was performed on the target protein set. Fisher’s exact test was employed to compare the distribution of GO categories in the target protein set and the overall protein set, thereby conducting enrichment analysis of the GO annotations in the target protein set. The proteomics dataset generated in this study has been made publicly available through the PRIDE ProteomeXchange Consortium with the dataset identifier PXD061919.
# [1] = target: tyrosinase from BioVision, Inc. (claimed to be of human origin); parameters: method as in PMID 38909081; settings: cited from earlier work
# rabbits and mice = settings: in vivo; cited from earlier work
smiles,measurement,setting,value
O=C(O)CC(O)C(=O)O (stereo not drawn) [malic acid],Abhd14a protein fold change,B16-F10 cells,0.4947
same,Acvr1b protein fold change,B16-F10 cells,0.348
same,Adgrg1 protein fold change,B16-F10 cells,0.3255
same,Aplp2 protein fold change,B16-F10 cells,0.1925
same,App protein fold change,B16-F10 cells,0.309
same,Arrdc3 protein fold change,B16-F10 cells,0.2723
same,Atp6ap2 protein fold change,B16-F10 cells,0.4615
same,Atxn2l protein fold change,B16-F10 cells,0.3743
same,Bace2 protein fold change,B16-F10 cells,0.2949
same,CUB domain-containing protein (Q3TD85) fold change,B16-F10 cells,0.319
same,Cd151 protein fold change,B16-F10 cells,0.3796
same,Cox6a1 protein fold change,B16-F10 cells,2.331
same,Cpe protein fold change,B16-F10 cells,0.425
same,Cryab protein fold change,B16-F10 cells,0.4352
same,Ctns protein fold change,B16-F10 cells,0.4962
same,Cxne protein fold change,B16-F10 cells,0.4043
same,Cyp51a1 protein fold change,B16-F10 cells,0.4596
same,Dct protein fold change,B16-F10 cells,0.453
same,Ddr1 protein fold change,B16-F10 cells,0.4956
same,Dgcr2 protein fold change,B16-F10 cells,0.4757
same,Dhrsx protein fold change,B16-F10 cells,0.4224
same,E2f5 protein fold change,B16-F10 cells,2.052
same,Eng protein fold change,B16-F10 cells,0.4971
same,Fam174b protein fold change,B16-F10 cells,0.4334
same,Fau protein fold change,B16-F10 cells,4.207
same,Fip1l1 protein fold change,B16-F10 cells,0.4619
same,Fth1 protein fold change,B16-F10 cells,2.2552
same,Ftl1 protein fold change,B16-F10 cells,2.521
same,Ginm1 protein fold change,B16-F10 cells,0.2408
same,Globin family profile domain-containing protein (Q8BPF4) fold change,B16-F10 cells,0.4868
same,Gpnmb protein fold change,B16-F10 cells,0.4267
same,H1-0 protein fold change,B16-F10 cells,2.091
same,H1-1 protein fold change,B16-F10 cells,2.387
same,Haghl protein fold change,B16-F10 cells,2.0913
same,Hbbt1 protein fold change,B16-F10 cells,0.3537
same,Hist2h2aa1 protein fold change,B16-F10 cells,5.559
same,Hspb1 protein fold change,B16-F10 cells,0.432
same,Ifitm2 protein fold change,B16-F10 cells,0.2473
same,Ifitm3 protein fold change,B16-F10 cells,0.405
same,Ifngr1 protein fold change,B16-F10 cells,0.477
same,Il10rb protein fold change,B16-F10 cells,0.279
same,Il17ra protein fold change,B16-F10 cells,0.4348
same,Itih3 protein fold change,B16-F10 cells,0.2609
same,Itm2b protein fold change,B16-F10 cells,0.1357
same,Itm2c protein fold change,B16-F10 cells,0.2222
same,Lama2 protein fold change,B16-F10 cells,2.748
same,Laptm4b protein fold change,B16-F10 cells,0.1099
same,Ldlr protein fold change,B16-F10 cells,0.3286
same,Lgmn protein fold change,B16-F10 cells,0.3573
same,Lmbrd1 protein fold change,B16-F10 cells,0.4382
same,Map1lc3b protein fold change,B16-F10 cells,0.4627
same,Mapre2 protein fold change,B16-F10 cells,0.4775
same,Mfap3 protein fold change,B16-F10 cells,0.2203
same,Mfge8 protein fold change,B16-F10 cells,0.4888
same,Mlana protein fold change,B16-F10 cells,0.1802
same,Ndfip1 protein fold change,B16-F10 cells,0.1482
same,Nrp1 protein fold change,B16-F10 cells,0.4816
same,Nrp2 protein fold change,B16-F10 cells,0.3963
same,Nus1 protein fold change,B16-F10 cells,0.4939
same,Pbx1 protein fold change,B16-F10 cells,2.038
same,Pcdhgb2 protein fold change,B16-F10 cells,0.2826
same,Peli1 protein fold change,B16-F10 cells,0.4419
same,Plekhb2 protein fold change,B16-F10 cells,0.4812
same,Pmel protein fold change,B16-F10 cells,0.458
same,Ppp1r12b protein fold change,B16-F10 cells,2.498
same,Psap protein fold change,B16-F10 cells,0.4952
same,Ptprs protein fold change,B16-F10 cells,0.4661
same,Pwwp3a protein fold change,B16-F10 cells,2.511
same,Rhob protein fold change,B16-F10 cells,0.4341
same,Rhoj protein fold change,B16-F10 cells,0.4834
same,Rnf130 protein fold change,B16-F10 cells,0.4325
same,Sdcbp protein fold change,B16-F10 cells,0.4716
same,Sema4b protein fold change,B16-F10 cells,0.4477
same,Sema6d protein fold change,B16-F10 cells,0.4605
same,Sgce protein fold change,B16-F10 cells,0.2346
same,Sh3bp2 protein fold change,B16-F10 cells,0.3699
same,Slc4a2 protein fold change,B16-F10 cells,0.4141
same,Slc24a5 protein fold change,B16-F10 cells,0.4133
same,Slc38a2 protein fold change,B16-F10 cells,0.2034
same,Slc45a2 protein fold change,B16-F10 cells,0.4213
same,Sppl2b protein fold change,B16-F10 cells,0.4857
same,Spring1 protein fold change,B16-F10 cells,0.2636
same,Syt4 protein fold change,B16-F10 cells,0.1657
same,Tax1bp1 protein fold change,B16-F10 cells,0.4715
same,Tcf7l1 protein fold change,B16-F10 cells,0.4286
same,Tgfbr1 protein fold change,B16-F10 cells,0.4711
same,Tk1 protein fold change,B16-F10 cells,2.015
same,Tmem59 protein fold change,B16-F10 cells,0.1062
same,Tmem176a protein fold change,B16-F10 cells,0.2285
same,Tnfrsf1a protein fold change,B16-F10 cells,0.4638
same,Tpp1 protein fold change,B16-F10 cells,0.3033
same,Tspan3 protein fold change,B16-F10 cells,0.3098
same,Tspan6 protein fold change,B16-F10 cells,0.466
same,Tspan10 protein fold change,B16-F10 cells,0.2722
same,Tspan14 protein fold change,B16-F10 cells,0.4171
same,Tyr protein fold change,B16-F10 cells,0.3761
same,Tyrp1 protein fold change,B16-F10 cells,0.2755
same,Ubl3 protein fold change,B16-F10 cells,0.2044
same,Wfdc3 protein fold change,B16-F10 cells,0.3403
same,il6st protein fold change,B16-F10 cells,0.3637
same,IC50,[1],87.5 µM
same,oral LD50,rabbits and mice,1600 to 3200 mg/kg
